# Laboratory results from ChEMBL document CHEMBL1132391, “The sulfonimidamide as a novel transition state analog for aspartic acid and metallo proteases” (Bioorg Med Chem Lett, 1999).
# Assays:
# [1] = biological target: T1, Human immunodeficiency virus type 1 protease (Human immunodeficiency virus 1, UniProt Q72874); assay: Tested for the inhibitory activity against HIV protease (Second pure eluting diastereomer )
# Pepsin A [2] = biological target: T2, Pepsin A (Sus scrofa, UniProt P00791); assay: Tested for the inhibitory activity against pepsin (Second pure eluting diastereomer )
# [3] = biological target: T1, Human immunodeficiency virus type 1 protease; assay: Tested for the inhibitory activity against HIV protease (First pure eluting diastereomer)
# Pepsin A [4] = biological target: T2, Pepsin A; assay: Tested for the inhibitory activity against pepsin (First pure eluting diastereomer)
# [5] = (§1) Tested for the inhibitory activity against Carboxypeptidase A (mixture of diastereomers)
# [6] = as §1; remark: listed apart in the source
# Pepsin A [7] = biological target: T2, Pepsin A; assay: Tested for the inhibitory activity against pepsin
# [8] = biological target: T1, Human immunodeficiency virus type 1 protease; assay: Tested for the inhibitory activity against HIV protease
# T2 sequence (P00791 whole entry): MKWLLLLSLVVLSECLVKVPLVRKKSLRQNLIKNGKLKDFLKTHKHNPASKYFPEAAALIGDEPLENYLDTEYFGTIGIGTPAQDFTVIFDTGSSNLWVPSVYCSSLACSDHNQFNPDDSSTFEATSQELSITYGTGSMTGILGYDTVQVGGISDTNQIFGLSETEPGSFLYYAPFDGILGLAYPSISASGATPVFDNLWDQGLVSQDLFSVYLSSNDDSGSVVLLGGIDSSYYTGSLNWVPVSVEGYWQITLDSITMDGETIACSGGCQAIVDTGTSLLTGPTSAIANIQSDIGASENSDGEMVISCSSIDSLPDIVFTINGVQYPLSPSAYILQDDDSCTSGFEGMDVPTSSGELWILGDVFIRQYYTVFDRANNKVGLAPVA
IC50 (Pepsin A [7]) [µM],IC50 [8] [µM],SMILES,other results
,,COC(=O)[C@H](Cc1ccccc1)N=[S+](N)([O-])CCc1ccccc1 (some centres not stated),IC50 [1]: > 5000 µM; IC50 (Pepsin A [2]): 700 µM; IC50 [3]: 1000 µM; IC50 (Pepsin A [4]): 700 µM
,,O=C(CCc1ccccc1)N[C@@H](Cc1ccccc1)C(=O)O,Km [5]: 2.1
,,N[S+]([O-])(CCc1ccccc1)=N[C@@H](Cc1ccccc1)C(=O)O (some centres not stated),IC50 [6]: 20 µM
> 3000,> 3000,O=C(CCc1ccccc1)NCC(=O)OCc1ccccc1,
> 3000,> 3000,COC(=O)[C@H](Cc1ccccc1)NC(=O)CCc1ccccc1,
700,> 5000,N[S+]([O-])(CCc1ccccc1)=NCC(=O)OCc1ccccc1 (configuration not stated),
